Measurements reported in patent publication US8835447B2, “Method for treating androgen receptor positive cancers” (priority 2009, dated 2014).
Entries after “also recorded” stand apart in the source; their conditions may differ.

Columns and labels:
PSA levels = conditions: Phase I clinical trial, castration resistant PCa; cited from earlier work
AR LBD = biological target: T1, AR LBD (Homo sapiens, UniProt P10275); conditions: cited from earlier work
T1 sequence (P10275 1-920): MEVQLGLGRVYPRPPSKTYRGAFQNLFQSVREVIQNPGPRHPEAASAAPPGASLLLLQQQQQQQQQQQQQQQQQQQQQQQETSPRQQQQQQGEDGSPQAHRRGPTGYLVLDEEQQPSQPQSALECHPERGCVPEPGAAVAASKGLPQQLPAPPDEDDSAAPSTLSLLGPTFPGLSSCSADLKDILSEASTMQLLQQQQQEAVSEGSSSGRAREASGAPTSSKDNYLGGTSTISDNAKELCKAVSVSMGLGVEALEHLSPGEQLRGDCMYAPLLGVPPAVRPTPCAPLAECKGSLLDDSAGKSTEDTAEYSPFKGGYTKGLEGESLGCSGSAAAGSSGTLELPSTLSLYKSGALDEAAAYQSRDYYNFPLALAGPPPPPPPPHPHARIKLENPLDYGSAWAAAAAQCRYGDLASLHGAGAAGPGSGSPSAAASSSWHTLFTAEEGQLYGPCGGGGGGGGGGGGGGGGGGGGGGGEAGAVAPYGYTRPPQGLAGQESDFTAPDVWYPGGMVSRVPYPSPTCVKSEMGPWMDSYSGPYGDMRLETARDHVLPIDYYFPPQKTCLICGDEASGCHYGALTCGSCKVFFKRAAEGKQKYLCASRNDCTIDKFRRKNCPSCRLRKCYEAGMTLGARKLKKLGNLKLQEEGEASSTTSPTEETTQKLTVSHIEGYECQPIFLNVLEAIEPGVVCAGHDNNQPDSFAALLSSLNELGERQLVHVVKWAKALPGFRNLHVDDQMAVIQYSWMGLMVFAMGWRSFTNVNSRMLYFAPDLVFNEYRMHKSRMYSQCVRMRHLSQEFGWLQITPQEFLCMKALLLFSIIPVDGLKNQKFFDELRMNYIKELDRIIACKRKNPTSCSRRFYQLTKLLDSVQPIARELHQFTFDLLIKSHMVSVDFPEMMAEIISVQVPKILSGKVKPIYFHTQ

[1] = tested on: HT1080, HeLa and DU145 cells; assay: Colony formation assay, non-PCa and AR-negative PCa cells; format: cell-based, human; conditions: 10 μM, 7 days
Description: (§1) Cell Colony Assay: Cells were plated in 24-well plates at a density allowing 6-7 days of exponential growth before confluency. Medium and compound was replaced every 48 hours to minimize the effect of potential compound instability. After 7 days of incubation in the presence of compound, cells were fixed and stained with methylene blue, followed by extraction of the stain with 1% SDS and spectrophotometry at 650 nm. Each assay was run in triplicate and the difference between control and compound-treated wells was determined using Student's t-test.
(§2) This Example provides a description of the effect of the selected compounds on the growth of PCa cells. To test the toxicity of the identified AR inhibitors towards cells of different origins, we performed colony formation assays using a single dose of each compound (10 μM) on several PCa (LNCaP, C4-2, CWR22R and DU145) and two non-PCa (HT1080 and HeLa) cell lines (FIG. 2A). […] These compounds were not weaker inhibitors of AR transcriptional activity in CWR22R or C4-2 cells than compounds that inhibited growth of the cells.

[2] = tested on: AR-expressing PCa cell lines (LNCaP, C4-2, CWR22R); assay: Toxicity to AR-expressing PCa cell lines (colony formation / dose-dependent growth inhibition); format: cell-based, human
Description: as §1
Dose-dependent inhibition of cell growth: Cells were plated at 1×10^3 cells per well in 96-well plates. Compounds were added in a dose range from 1 to 20000 nM in two-fold increments. Each dose was tested in triplicate. Controls were 0.1% DMSO (no effect on cell viability) and 50 μM 9-aminoacridine (complete cell death). Cells were incubated for 6 days and then fixed and stained with methylene blue, followed by extraction of the stain with 1% SDS and spectrophotometry at 650 nm. The assay was run two times and, based on the results, the inhibitory concentration of compound suppressing cell growth by 50% as compared to DMSO (IC50) was calculated by the sigmoid approximation method using CalcuSyn software (Biosoft, Chembridge, UK). Confidence intervals were calculated for each sigmoid.
as §2, with “the cells. […]” for “the cells.”

CWR22R cells = assay: Cell cycle distribution by propidium iodide staining; format: cell-based, human
Description: Analysis of cell cycle distribution was based on staining of DNA content by propidium iodide. 10^5 cells were removed from culture dishes using trypsin, washed with PBS and resuspended in 300 μl 3% BSA in PBS, followed by addition of […] 70% ethanol. Cells were kept at −20° C. for several hours and then stained with 10 μg/ml propidium iodide in the presence of 30 μg/ml RNase A for 2 hrs at 37° C. DNA content was assessed using a FACS Calibur instrument and CellQuest software (Becton Dickinson, Franklin Lakes, N.J.).
To test this possibility, we assessed the cell cycle distribution of CWR22R cells treated with both categories of compounds. […] Therefore, different subsets of compounds inhibiting AR-dependent transcription in androgen-independent PCa cells cause either growth arrest or apoptosis in these cells. Whether a compound causes growth arrest or apoptosis is not determined by the potency of the compound as an inhibitor of AR-dependent transcription (i.e., FIG. 2B).

Microsomal stability = format: in vitro ADME; conditions: 1 hour incubation with rat microsomes
Description: Five hit compounds, representing both the ARTIS and ARTIK categories (c6, c11, c17, c52 and c85), were selected for in vivo tests based on all of the previous assays. Compound c5 was rejected due to very low microsomal stability (<5% after 1 hour incubation with rat microsomes). The toxicity of the compounds was evaluated in a dose escalation assay in which male NIH Swiss mice (n=4) received three sequential intraperitoneal (i.p.) injections of each compound delivered in 3 day intervals. The first dose was 20-fold higher than the in vitro IC50 (20×IC50) for the compound in CWR22R cells recalculated based on mouse weight (see Example 1) and the second and third doses were 50×IC50 and 100×IC50, respectively. On the day after the last injection, half of the mice in each group were sacrificed for gross pathology examination and collection of blood for serum biochemistry assays, which include total protein, glucose, bilirubin, and creatinine levels, activity of liver enzymes, and ion concentrations. The remaining mice were sacrificed and evaluated similarly 7 days after the last compound injection. […] A minor decrease in serum glucose concentration (70-80% of control) was observed on the day after the last compound injection in almost all mice, but glucose levels were normal a week later (data not shown). […]

In the case of `CNC(=O)c1ccc(N2C(=S)N(c3ccc(C#N)c(C(F)(F)F)c3)C(=O)C2(C)C)cc1F` [MDV3100], the “PSA levels in patients” value (PSA levels) is listed as “demonstrated efficacy in decreasing PSA levels”.

For `CNC(=O)c1ccc(N2C(=S)N(c3ccc(C#N)c(C(F)(F)F)c3)C(=O)C23CCC3)cc1F` [RD162], the “partial agonist activity on AR” value (AR LBD) is listed as “not displayed” and the “binding to the AR LBD” value (AR LBD; non-competitive antagonists) is listed as “bind with high affinity to the AR LBD”.

In the case of `O=C1N=C(Nc2cccc(Cl)c2Cl)SC1=Cc1ccco1` [c5], the “growth of / toxicity towards non-PCa cells or AR-negative PCa cells (DU145)” value [1] is reported as “no toxicity”, the “toxicity towards AR-expressing PCa cell lines” value ([2]; colony formation, 10 μM, three AR-expressing PCa cell lines) is reported as “different degrees of toxicity; also recorded: suppress growth of all” and the “degree of toxicity to PCa cells (killing vs reduced growth)” value ([2]; dose-dependent toxicity, by day 7) is reported as “reduced growth as compared to untreated control cells, but not obvious cell death”. For the same compound, the “changes in cell cycle distribution” value (CWR22R cells; increase in G1, decrease in S phase) was “cell cycle arrest”, the “cells with sub-G1 DNA content (apoptotic)” value (CWR22R cells; propidium iodide FACS) was “did not result in appearance of cells with sub-G1 DNA content” and the “microsomal stability, compound left” value (Microsomal stability) was less than 5%.
